Measured values from patent publication US8962558B2, “Methods for reducing GnRH-positive tumor cell proliferation using the GnRH antagonist IN3” (priority 1997, dated 2015).
Where two headings read alike, the source gives them in different places.

Key:
BLM cells = test: In vivo study in nude mice inoculated with malignant melanoma, low dosage experiment; conditions: 100 μg per mouse daily, 2-3 weeks
Method: Sixteen male nude mice were injected s.c. in the flank with 1×10^6 (0.2 ml/mouse) BLM cells. The treatment started the same day: Eight mice received daily 100 μg […]® per mouse in 200 μl saline. Eight control mice were treated with 200 μl saline each. The treatment lasted 2-3 weeks. Every 2 to 3 days the volume of the tumors was determined by caliper.

Me15392 melanoma cells = test: Cell proliferation studies, Me15392 cells; assay type: cell-based, human; conditions: 10^−11-10^−6 M, 7 days
Method: The antiproliferative action of GnRH agonists on melanoma cells is further investigated in another melanoma cell line (Me15392). These experiments have been carried out as described above for BLM cells (same GnRH agonist, same doses of the drug and same length of treatment, etc.). All proliferation experiments were performed in four to six replicates. The data obtained from three independent experiments were analyzed according to the Dunnett's test after one-way ANOVA.

BLM melanoma cells [1] = test: Cell proliferation studies, BLM cells; assay type: cell-based, human; conditions: 10^−11-10^−6 M, daily for 7 days
Method: BLM cells were plated at a density of 700 cells/cm^2 in […] in culture medium. Cells were allowed to attach and start growing for 3 days; the seeding media were then changed. Cells were treated daily (the drug was added to the medium every day), for 7 days, with LHRH-A (10^−11-10^−6 M); the medium was changed at every two days. At the end of the treatment, cells were collected and counted by hemocytometer.
To confirm the specificity of the action of LHRH-A on melanoma cell proliferation, it was investigated whether the effects of the LHRH agonist might be counteracted by a potent GnRH antagonist. A preliminary experiment was performed to select the dose of the GnRH antagonist (ANT) to be used. To this purpose, BLM cells were treated daily with ANT at different doses (10^−11-10^−6 M).) Cells were harvested and counted after 7 days of treatment. Subsequently, BLM cells were treated daily, for 7 days, with LHRH-A (10^−7 M), either in the absence or in the presence of ANT (10^−7 M). Cells were counted 7 days after the beginning of the treatment.
All proliferation experiments were performed in four to six replicates. The data obtained from three independent experiments were analyzed according to the Dunnett's test after one-way ANOVA.

BLM melanoma cells [2] = test: Matrigel gel assay (invasion); assay type: cell-based, human; conditions: 10^−6 M; 4, 8 and 12 days
Method: This dose has been also used in previous papers analyzing the interaction between GnRH agonists and stimulatory growth factors in prostate cancer cells. Subconfluent BLM cells were collected by trypsinization, resuspended in culture medium and seeded in 20 μL (150,000 cells/drop) on the lid of a culture dish. The lid was then placed on a dish filled with 2 mL of culture medium and incubated at 37° C. for 48 h. Matrigel solution (80 μL, 2.7 mg/mL) was pipetted onto the bottom of wells of a 24-well culture dish, and left to set at 37° C. Cell aggregates were transferred over the cushion and then overlaid with additional 20 μL of Matrigel. The aggregates into Matrigel were covered with 400 μL culture medium in the absence or in the presence of LHRH-A (10^−6 M). The aggregates were then observed daily under a light microscope and at the end of the incubation time phase-contrast pictures of the aggregates were taken.

[3] = system: BLM melanoma tumor cell line implant; assay type: in vivo, nude mice
Method: In one series of experiments, nude mice bearing human melanoma tumor cell line xenotransplants were treated for two weeks with 100 μg of Goserelin daily, while a second group of mice was administered 200 μg of Goserelin daily, with an additional daily supplement given by subcutaneous injection. […] The in vivo tumor growth has three predominant characteristics: mitotic activity, dedifferentiation, and infiltration of cells into the surrounding tissue and vessels.
Results for this study are depicted in FIG. 21. These observations are in line with the previously shown inhibition of Matrigel invasion of BLM cells under Zoladex treatment, as described above. A histological investigation of the tumor before and after treatment has confirmed this finding (results not shown).
In another set of experiments, ZOLADEX® treatment was administered to mice for a period of four to eight weeks, with an additional GnRH antagonist treatment to avoid any tumor proliferation (i.e. flare up) following cessation of the therapy and to avoid tumor cell receptor depletion.

BLM melanoma cells [4] = test: Chemomigration assay (Boyden's chamber); assay type: cell-based, human; conditions: 10^−6 M pretreatment for 5 days, FBS 5%
Method: The assay was performed using a 48-well Boyden's chamber, according to the manufacturer's instruction (Neuroprobe, Cabin John, Md.). Subconfluent BLM cells, grown in culture medium, were pretreated for 5 days with LHRH-A (10^−6 M) and harvested at the end of the treatment. BLM cell suspensions (10^5 cells/50 μL), resuspended in culture medium deprived of FBS, were placed in the open-bottom wells of the upper compartment of the chamber. Each pair of wells were separated by polyvinylpyrrolidone-free polycarbonate porous membrane (8-μm pores) pre-coated with gelatin (0.2 mg/mL in PBS). The chemoattractant (FBS 5%) was placed in the lower compartment of the chamber. The chamber was then kept for 4 h in the cell culture incubator. After that, the cells migrated through the pores, and adhered to the underside of the membrane, were fixed, stained (Diff-Quick kit, DADE, Dudingen, CH) and mounted onto glass slides. For quantitative analysis, six random objective fields of stained cells were counted for each well (8 wells/experimental group) and the mean number of migrating cells/mm^2 was calculated. The data obtained from four independent experiments were compared by ANOVA and Dunnett's test.

U-87MG cells = assay type: cell-based, human; conditions: for inhibition versus controls: 7 days
Method: U-87MG cells were plated at a density of 1400 cells/cm^2 in […] in standard culture medium. Cells were allowed to attach and start growing for 3 days; the seeding media were then changed to experimental media. Cells were treated for 7 days with ZOLADEX® (10^−10-10^−6 M); medium was changed every two days. Following treatment, cells were collected and counted by hemocytometer. Data obtained from three independent experiments were analyzed according to the Dunnett's test after one-way ANOVA.

[5] = system: malignant gliomas U-87MG and U-373MG; test: In vivo study with tumor-implanted nude mice (Example 4); conditions: daily dosages
Method: An effect of the treatment of tumor-implanted nude mice (Pinski et al., supra) each with one of the GnRH agonists Buserelin, Triptorelin, Goserelin, and Leuprorelin and each with one of the GnRH antagonists Cetrorelix® (SB-75), Antarelix®, Antide®, and Ramorelix® on the growth of malignant gliomas U-87MG and U-373MG was carried out using daily dosages and controls in nude mice using analysis techniques described for the determination of the efficacy of similar peptides in Pinski et al., supra.

In the case of CC(C)C[C@H](NC(=O)[C@@H](COC(C)(C)C)NC(=O)[C@H](Cc1ccc(O)cc1)NC(=O)[C@H](CO)NC(=O)[C@H](Cc1c[nH]c2ccccc12)NC(=O)[C@H](Cc1cnc[nH]1)NC(=O)[C@@H]1CCC(=O)N1)C(=O)N[C@@H](CCCNC(=N)N)C(=O)N1CCC[C@H]1C(=O)NNC(N)=O [ZOLADEX®, D-Ser(tBu)^6Aza-Gly-LHRH], the “tumors smaller with respect to the controls” value (BLM cells) is reported as 15-20%, the cell proliferation (Me15392 melanoma cells) is reported as “significant and dose-dependent inhibition of cell proliferation” and the cell proliferation (BLM melanoma cells [1]) is reported as “significant and dose-dependent inhibition of cell proliferation”. The “migration of the cells through the Matrigel” value (BLM melanoma cells [2]) was “completely abrogates”, the “reduction in tumor weight” value ([3]; 100 μg or 200 μg daily, after two weeks, both groups) was 50% and the “persistence of tumor growth inhibition despite cessation of treatment” value ([3]; 100 μg/day or 200 μg/day) was roughly 4 weeks. For the same molecule, the “growth inhibitory effect compared with 100 μg/day” value ([3]; 200 μg/day) was “even more powerful growth inhibitory effect”, the “tumor growth once treatment has stopped” value ([3]; after two weeks (16 days) of treatment) was “rebound of tumor growth (flare up) is observed” and the “inhibition of BLM cell growth” value ([3]; mouse, in vivo) was “about 50%”. The “number of cells that migrate in response to the chemoattractant” value (BLM melanoma cells [4]) was “significantly decreased”, the inhibition versus controls (U-87MG cells; 10^−6M) was “about 45%” and the inhibition versus controls (U-87MG cells; 10^−8M) was “about 23%”. For the same molecule, the proliferation rate (U-87MG cells; significantly effective at 10^−8 to 10^−6 M) was “significant decrease of the proliferation rate” and the “growth of malignant gliomas” value [5] was “Significant growth-inhibiting effects”.
